According to patent publication US4568689A, “Pharmaceutical preparation for the treatment of hypertensive disease and myocardial infarction” (priority 1983, dated 1986):
“Also recorded” adds a separate entry of the source.

How the values were obtained:
[1] = background; cited from earlier work
[2] = test system: arterial pressure of spontaneously hypertensive rats; experiment: effect of the oral form on arterial pressure, spontaneously hypertensive rats; type: in vivo; details: 10 mg/kg
[3] = background; cited from earlier work; remark: listed apart in the source
[4] = test system: arterial pressure of rats with spontaneous hypertension; experiment: hypotensive effect, intraperitoneal, spontaneously hypertensive rats; type: in vivo
Procedure: The study of the hypotensive effect was carried out in experiments on spontaneously hypertensive male rats of the Akamoto-Aoki line aged 20-25 weeks. The prior art preparation-nifedipine was used for the purpose of comparison. The measurement of the arterial pressure was effected on the tail vein of the rats by the indirect method. The animals were divided into groups (10 in each) and trained for two weeks with the view to ensure their adaptation to the unit for the measurement of the arterial pressure. The level of the arterial pressure prior to administration of the test preparations was measured three times: two days, one day and directly prior to administration of the test preparations. The preparation was administered in the form of a 2.5% aqueous solution, nifedipine--in the form of a 2.5% suspension in Twin-80 intraperitoneally. […]

[5] = test system: neoepinephrine model of infarction (focal necrosis) of myocardium in rats; experiment: survival of rats with the neoepinephrine model of infarction; type: in vivo, rats of the Wistar line; details: 25 mg/kg subcutaneously, 7 days; for Percentage of survival: after 19 days; for Number of survived animals after 19 days: groups initially 12 animals
Procedure: The study of the effect produced by the preparation according to the present invention on survival of animals with a neoepinephrine model of infarction was effected in comparison with the prior art preparations--obzidan and finoptin.
The formation of a neoepinephrine model of infarction (focal necrosis) of myocardium in rats was effected by way of an every-day subcutaneous administration of a 0.1% solution of neoepinephrine in the dose of 3 mg/kg for 7 days to rats of the Wistar line with a mass of 160-200 g. The test preparations were subcutaneously administered to the rats in the form of a 1.25% aqueous solution in the dose of 25 mg/kg 0.5 hour after injection of neoepinephrine also for 7 days.

[6] = test system: experimental necrosis of myocardium caused by introduction of adrenaline; experiment: histological analysis of experimental necrosis of myocardium caused by adrenaline; type: in vivo, rats of the Wistar line; details: for changes in cardiomyocytes / changes in interstitial tissue / changes in vessels: 25 mg/kg
Procedure: A comparative study of the effects produced by the preparation according to the present invention and finoptin on an experimental necrosis of myocardium caused by introduction of adrenaline.
The experiments were carried out on rats of the Wistar line of gregarious keeping, both sexes, with a mass of 170 to 225 g. Each preparation was studied on a separate group of animals: (group of adrenaline-control, group of finoptin, group of the preparation according to the present invention). 72 rats were used in the experiments altogether. Injuries of myocardium were caused by way of a single-time subcutaneous administration of a 0.1% solution of adrenaline hydrochloride in the dose of 3 mg per kg of the rat's bodyweight. […] The preparation of this invention was administered subcutaneously, finoptin-per os. On the first day of the experiment the preparations were administered 30 minutes after injection of adrenaline hydrochloride. The experiment lasted for 19 days. Slaughters were effected on the 4th, 8th, 12th and 19th day of the experiment. The animals were decapitated. The heart was fixed in a 10% solution of neutral formalin and sealed in paraffin. Serial sections with the thickness of 5-6μ were coloured by Ehrlich hematoxylin-eosin. The state of vessels of myocardium, cardiomyocytes and interstitial tissue were evaluated by histological analysis.

[7] = 1 mg/kg intraperitoneally, 30 minutes
[8] = 1 mg/kg intraperitoneally, 1 hour
[9] = 1 mg/kg intraperitoneally, 2 hours
[10] = 1 mg/kg intraperitoneally, 4 hours
[11] = 1 mg/kg intraperitoneally, 24 hours
[12] = 4th day, grade/number of animals (6)
[13] = 8th day, grade/number of animals (6)
[14] = 12th day, grade/number of animals (6)
[15] = 19th day, grade/number of animals (5)

Structure (SMILES): CC(C)NCC(O)COc1cccc2ccccc12 (stereo not drawn) [inderal]
- inotropic effect [1]: negative inotropic effect

Structure (SMILES): COC(=O)C1=C(C)NC(C)=C(C(=O)OC)C1c1ccccc1[N+](=O)[O-] [Nifedipine, reference compound]
- Variation of arterial pressure, diastolic ([2]; 30 minutes): -14 % of the initial
- Variation of arterial pressure, systolic ([2]; 30 minutes): -10 % of the initial
- Variation of arterial pressure, diastolic ([2]; 1 hour): -18 % of the initial
- Variation of arterial pressure, systolic ([2]; 1 hour): -14 % of the initial
- Variation of arterial pressure, diastolic ([2]; 2 hours): -16 % of the initial
- Variation of arterial pressure, systolic ([2]; 2 hours): -10 % of the initial
- Variation of arterial pressure, diastolic ([2]; 4 hours): -20 % of the initial
- Variation of arterial pressure, systolic ([2]; 4 hours): -18 % of the initial
- Variation of arterial pressure, diastolic ([2]; 24 hours): 0 % of the initial
- Variation of arterial pressure, systolic ([2]; 24 hours): 0 % of the initial
- duration of effect [3]: ≤ 8 h
- Variation of arterial pressure, diastolic [4, 7]: -8 % of the initial
- Variation of arterial pressure, systolic [4, 7]: -4 % of the initial
- lowering of diastolic pressure [4, 7]: 7.6%
- lowering of systolic pressure [4, 7]: 4.3%
- Variation of arterial pressure, diastolic [4, 8]: -14 % of the initial
- Variation of arterial pressure, systolic [4, 8]: -11 % of the initial
- Variation of arterial pressure, diastolic [4, 9]: -21 % of the initial
- Variation of arterial pressure, systolic [4, 9]: -8 % of the initial
- Variation of arterial pressure, diastolic [4, 10]: -31 % of the initial
- Variation of arterial pressure, systolic [4, 10]: -11 % of the initial
- Variation of arterial pressure, diastolic [4, 11]: 0 % of the initial
- Variation of arterial pressure, systolic [4, 11]: 0 % of the initial
- effect upon expiration of 8 hours ([4]; 8 hours): substantially discontinued

Structure (SMILES): C=CCOc1ccccc1OCC(O)CNC(C)C (stereo not drawn) [oxyprenolol]
- inotropic effect [1]: negative inotropic effect

Structure (SMILES): CC(C)NCC(O)COc1cccc2ccccc12 (stereo not drawn) [Obzidan]
- Percentage of survival [5]: 50%
- Number of survived animals after 19 days [5]: 6

Structure (SMILES): COc1ccc(CCN(C)CCCC(C#N)(c2ccc(OC)c(OC)c2)C(C)C)cc1OC (stereo not drawn) [Finoptin, reference compound]
- changes in cardiomyocytes ([6]; 4th day): Necrosis and eosinophilia, as well as contracture alterations of muscular cells are observed in a half of the studied animals
- changes in interstitial tissue ([6]; 4th day): edema is decreased, in a half of the animals a diffusive round-cell infiltration is observed, the formation of granulomae is similar to that of the animals of the control group
- changes in vessels ([6]; 4th day): injuries of the vascular system are less clearly pronounced as compared to adrenaline; non-uniform distribution of endothelium and infiltration of adventita of arteries with lymphoid cells are insignificant
- necrobiotic regions in the wall [6, 12]: 0/6
- necrosis of more than 5 cells [6, 12]: 0/6
- wall necrosis (vessels) [6, 12]: 0/6
- changes in cardiomyocytes ([6]; 8th day): granular-lumpy decomposition, eosinophilia and contructure type pathology are more pronounced than in the group of animals administered with the preparation according to the present invention, but less pronounced as compared to the control group (adrenaline)
- changes in interstitial tissue ([6]; 8th day): a more intensive growth of the scarring tissue is observed as compared to the group of animals administered with the preparation according to the present invention and an insignificant decrease as compared to the control group (adrenaline)
- diffusive round-cell infiltration [6, 13]: 0/6
- edema (interstitial tissue) [6, 13]: 0/6
- necrobiotic regions in the wall [6, 13]: 0/6
- necrosis of more than 5 cells [6, 13]: 0/6
- nuclei (pyknosis) [6, 13]: 0/6
- plethora of the vessels [6, 13]: 0/6
- wall necrosis (vessels) [6, 13]: 0/6
- changes in cardiomyocytes ([6]; 12th day): Eosinophilia is retained and the contructure type changes are more clearly pronounced than in the group administered with the preparation according to the present invention
- changes in interstitial tissue ([6]; 12th day): an intensive formation of the scarring tissue occurs more noticeably than in the group of animals administered with the preparation according to the present invention
- changes in vessels ([6]; 12th day): certain changes are observed on the part of endothelial cells (swelling)
- Nuclei (pykhnosis) [6, 14]: 0/6
- diffusive round-cell infiltration [6, 14]: 0/6
- edema (interstitial tissue) [6, 14]: 0/6
- infiltration of the adventitia with lymphoid cells [6, 14]: 0/5
- necrobiotic regions with changes in the vessel wall [6, 14]: 0/6
- necrosis of more than 5 cells [6, 14]: 0/6
- plethora of the vessels [6, 14]: 0/6
- wall necrosis (vessels) [6, 14]: 0/6
- changes in cardiomyocytes ([6]; 19th day): By the 19th day these changes are getting less noticeable; also recorded: In half of the animals a moderately pronounced granular-lumpy decomposition is retained along with eosinophilia, cell necroses and contructure type changes
- changes in vessels ([6]; 19th day): no changes are detected on the part of the coronary vessels
- infiltration of the adventitia with lymphoid cells [6, 15]: 0/5
- necrobiotic regions with changes in the vessel wall [6, 15]: 0/5
- necrosis of more than 5 cells [6, 15]: 0/5
- nuclei (pyknosis) [6, 15]: 0/5
- plethora of the vessels [6, 15]: 0/5
- Percentage of survival [5]: 50%
- Number of survived animals after 19 days [5]: 6
